According to patent US9381203B2, “Combination therapies for treatment of laminopathies, cellular aging, and atherosclerosis” (priority 2013, dated 2016):

System: HGPS patients
Test: Kaplan-Meier survival analysis of treated vs. untreated HGPS patients
Assay type: in vivo, human
Description: Survival data of untreated subjects was collected from hospital case studies, newspaper articles, and other publicly available databases. “Untreated subjects” were defined as HGPS-diagnosed subjects who had no exposure to HGPS clinical treatment trial medications. In total, data from 155 subjects; including 100 deceased and 55 living, was used in the analysis, the cut-off date for which was Dec. 3, 2012.
“Treated subjects” were defined as all subjects who were enrolled in one or both of two HGPS farnesyltransferase inhibitor (FTI) clinical treatment trials to date, for any length of time. Treatment conditions for the initial, FTI-only, trial are described in Gordon et al., PNAS, 109:16666/16671, 2012. Treatment conditions for the three-drug combination of lonafarnib, pravastatin, and zoledronic acid, are described in Example 1. In total data from 43 subjects; including 4 deceased and 39 living, was included in the analysis.
Kaplan-Meier survival analyses were carried out using SAS statistical analysis software.

NC(=O)N1CCC(CC(=O)N2CCC([C@H]3c4ncc(Br)cc4CCc4cc(Cl)cc(Br)c43)CC2)CC1 [FTI, lonafarnib]
Mean years of survival, treated vs. untreated (all subject groupings of FIG. 5, FTI only or with pravastatin and zoledronic acid): significant increase in mean years of survival | Survival of treated vs. untreated patients (Kaplan-Meier) (entire sample, 43 treated (FTI only or with pravastatin and zoledronic acid) vs. 155 untreated, FIG. 1): significant survival benefit
